# Test results reported in US20050119281A1, “Powder composition comprising zaleplon of defined particle size distribution and pharmaceutical products made therefrom” (Biogal Gyogyszergyar Rt, priority 2002, published 2005).
# Assay: Particle size distribution of zaleplon particles by laser diffraction (Malvern Mastersizer)
# Format: physicochemical
# Settings: suspended in hexane with 1% Tween 80, sonicated 120 seconds
# Experimental: In accordance with the invention, the size distribution of zaleplon particles is determined by laser diffraction. Our method of determining the size of zaleplon particles used a Malvern™ Mastersizer laser diffraction instrument. Samples of the zaleplon were suspended in hexane containing a surfactant, 1% Tween® 80. The suspensions were mixed and then sonicated for 120 seconds to thoroughly disperse the zaleplon particles. The dispersion was then circulated in the flow cell of the Malvern Mastersizer for two minutes before particle size measurements were taken.
smiles,measurement,value
"CCN(C(C)=O)c1cccc(-c2ccnc3c(C#N)cnn23)c1 [Zaleplon, N-[3-(3-cyanopyrazolo[1,5-a]pyrimidin-7-yl)phenyl]-N-ethylacetamide]",diameter that 10% of the particles are equal to or less than,14 μm
same,diameter that 90% of the particles are equal to or less than,134 μm
same,median particle size,55 μm
"CCN(C(C)=O)c1cccc(-c2ccnc3c(C#N)cnn23)c1 [micronized zaleplon, N-[3-(3-cyanopyrazolo[1,5-a]pyrimidin-7-yl)phenyl]-N-ethylacetamide]",diameter that 90% of the particles are equal to or less than,15.1 μm
same,median particle size,6.3 μm
"CCN(C(C)=O)c1cccc(-c2ccnc3c(C#N)cnn23)c1 [milled zaleplon, N-[3-(3-cyanopyrazolo[1,5-a]pyrimidin-7-yl)phenyl]-N-ethylacetamide]",diameter that 10% of the particles are equal to or less than,8.3 μm
same,diameter that 90% of the particles are equal to or less than,84.6 μm
same,median particle size,37.0 μm
